Substitutions are numbered along the chain they refer to. Where “and” joins values, the source holds several entries; their conditions need not be identical. Identical values can stand only once.
Columns and labels:
[1] = target: T1, M2R (Homo sapiens, UniProt P08172); experiment: biochemical; type: binding; parameters: expressed in transfected cells; details: for IC50: IC50 ([3H]-NMS competition)
T1 sequence (P08172 1-466): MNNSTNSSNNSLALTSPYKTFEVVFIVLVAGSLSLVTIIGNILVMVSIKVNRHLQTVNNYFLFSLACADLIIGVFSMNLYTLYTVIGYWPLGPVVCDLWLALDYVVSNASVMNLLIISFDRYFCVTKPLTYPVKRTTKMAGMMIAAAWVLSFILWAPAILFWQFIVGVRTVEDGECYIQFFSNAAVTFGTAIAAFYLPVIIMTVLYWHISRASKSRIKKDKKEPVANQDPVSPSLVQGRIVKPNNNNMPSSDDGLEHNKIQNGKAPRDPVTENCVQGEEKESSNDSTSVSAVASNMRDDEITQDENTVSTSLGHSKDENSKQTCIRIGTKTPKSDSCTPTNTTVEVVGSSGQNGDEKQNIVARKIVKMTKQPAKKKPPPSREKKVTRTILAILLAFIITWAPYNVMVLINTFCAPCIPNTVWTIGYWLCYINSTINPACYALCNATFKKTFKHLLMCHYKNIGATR
Experimental: Purified M2R receptor was reconstituted into high-density lipoprotein (HDL) particles constituting apolipoprotein A1(APOA1) and mixture of POPG: POPC lipids with 3:2 (mol:mol)ratio as previously described. […] Membranes or HDL particles were separated from excess [^3H]-NMS by Whatman GF/B filters using a Brandel 48-well harvester. The bound radioligand were read on a liquid scintillation counter (MicroBeta Jet, PerkinElmer). Data were analyzed by GraphPad Prism 9.2.0.

[2] = target: T2, M2R and GoA (Homo sapiens, UniProt P08172); experiment: GTPase-Glo assay (GTP turnover) with purified M2R and GoA; type: biochemical; details: for Residual GTP (%): 90 min, normalized to GoA alone
T2 construct: FLAG (N); 8xHis (C); made in house; host or cells: Sf9 insect cells (receptor)
Experimental: The receptors for GTPase-Glo^TM assay were expressed and purified as described above and frozen at −80 °C before use. […] The GTPase reaction was incubated at room temperature (22–25 °C) for different times (15–90 min). […] After incubation, 5 μL reconstituted 1xGTPase-Glo^TM Reagent (Promega) was added to the completed GTPase reaction, mixed briefly and incubated with shaking for 30 min at room temperature (22–25 °C) to convert the remaining GTP into ATP. Then 10 μL Detection Reagent (Promega) was added to the system and incubated for 5-10 min at room temperature (22–25 °C) to convert the ATP into luminescent signals. Luminescence intensity was quantified using a Multimode Plate Reader (PerkinElmer) luminescence counter.

[3] = target: T3, M2R L129^34.51A mutant (Homo sapiens, UniProt P08172, L129A); experiment: NanoBiT-GoA dissociation assay, L129A mutant M2R
T3 sequence (P08172 1-466 L129A): T1 sequence (P08172 1-466) with L129A
Experimental: Plasmid transfection for HEK293A cells (Thermo Fisher Scientific) was performed by combining 25 µl (volume is per 10-cm culture dish) of polyethylenimine solution (1 mg/mL) and a mixture of plasmids each encoding the large fragment (LgBiT)-containing the GαoA subunit (500 ng), the small fragment (SmBiT)-fused Gγ2 subunit with the C68S mutation (2.5 µg) and the untagged Gβ1 subunit (2.5 µg), along with a human, wild-type M2R (1 µg; containing N-terminal HA-derived signal sequence followed by the FLAG-epitope tag). After an incubation for one day, the transfected cells were harvested, pelleted with centrifugation, and suspended in 9 ml of Hank’s balanced saline solution (HBSS) containing 0.01% bovine serum albumin (BSA fatty acid–free grade, SERVA) and 5 mM HEPES (pH 7.4) (assay buffer). The cell suspension was dispensed in a white 96-well plate at a volume of 70 µl per well and mixed with 20 µl of 50 µM coelenterazine (Carbosynth) diluted in the assay buffer. […] Kinetics data points from 5 min to 10 min were averaged and normalized to the initial count and used as a G-protein dissociation index. For the mutant study, the cell culture and the transfection mixture were scaled down to a 6-cm dish (4 ml culture media) and the transfected cells were suspended in 4 ml of the assay buffer and seeded in the 96-well plate at a volume of 80 µL. The G-protein dissociation signals were fitted to a four-parameter sigmoidal concentration-response curve (GraphPad Prism8). For each experiment, we calculated Emax by normalizing Span to the LY2119620-free condition and ∆pEC50 by subtracting pEC50 of the LY2119620-free condition performed in parallel and used the values to denote allosteric modulator activity. Similarly, for the mutant study, we calculated ∆pEC50 by subtracting pEC50 of the WT (1:1) condition performed in parallel.

[4] = test system: Mock; experiment: NanoBiT-GoA dissociation assay, Mock-transfected cells (control); type: cell-based
[5] = target: T4, human, wild-type M2R (Homo sapiens, UniProt P08172); experiment: NanoBiT-G-protein (GoA) dissociation assay, wild-type M2R, HEK293A cells; type: cell-based; details: for NanoBiT-GoA dissociation signal, Mean (Veh = 1.000): n = 4
T4 construct: expressed in transfected cells; host or cells: HEK293A
T4 sequence (P08172 1-466): T1 sequence (P08172 1-466)
Experimental: Plasmid transfection for HEK293A cells (Thermo Fisher Scientific) was performed by combining 25 µl (volume is per 10-cm culture dish) of polyethylenimine solution (1 mg/mL) and a mixture of plasmids each encoding the large fragment (LgBiT)-containing the GαoA subunit (500 ng), the small fragment (SmBiT)-fused Gγ2 subunit with the C68S mutation (2.5 µg) and the untagged Gβ1 subunit (2.5 µg), along with a human, wild-type M2R (1 µg; containing N-terminal HA-derived signal sequence followed by the FLAG-epitope tag). After an incubation for one day, the transfected cells were harvested, pelleted with centrifugation, and suspended in 9 ml of Hank’s balanced saline solution (HBSS) containing 0.01% bovine serum albumin (BSA fatty acid–free grade, SERVA) and 5 mM HEPES (pH 7.4) (assay buffer). The cell suspension was dispensed in a white 96-well plate at a volume of 70 µl per well and mixed with 20 µl of 50 µM coelenterazine (Carbosynth) diluted in the assay buffer. After 2 h incubation at room temperature, the plate was measured for baseline luminescence (SpectraMax L, Molecular Devices) and 10 µl of titrated concentrations of LY2119620 diluted in the assay buffer were added. […] Kinetics data points from 5 min to 10 min were averaged and normalized to the initial count and used as a G-protein dissociation index. […] The G-protein dissociation signals were fitted to a four-parameter sigmoidal concentration-response curve (GraphPad Prism8). For each experiment, we calculated Emax by normalizing Span to the LY2119620-free condition and ∆pEC50 by subtracting pEC50 of the LY2119620-free condition performed in parallel and used the values to denote allosteric modulator activity.

T2 sequence (P59768 2-68, one chain of several): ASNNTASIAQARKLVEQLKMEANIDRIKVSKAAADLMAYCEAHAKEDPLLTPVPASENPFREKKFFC
T2 sequence (P09471 2-354, one chain of several, further chain): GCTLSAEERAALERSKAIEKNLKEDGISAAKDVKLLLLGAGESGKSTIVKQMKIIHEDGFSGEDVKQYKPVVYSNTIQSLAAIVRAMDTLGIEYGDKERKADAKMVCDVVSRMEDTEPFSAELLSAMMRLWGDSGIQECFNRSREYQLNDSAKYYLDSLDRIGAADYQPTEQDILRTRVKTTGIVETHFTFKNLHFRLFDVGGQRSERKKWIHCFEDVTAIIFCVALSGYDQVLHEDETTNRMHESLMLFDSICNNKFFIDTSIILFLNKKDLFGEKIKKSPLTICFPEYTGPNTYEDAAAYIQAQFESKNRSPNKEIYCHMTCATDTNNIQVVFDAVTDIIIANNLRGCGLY
T2 sequence (P62873 whole entry, one chain of several, further chain): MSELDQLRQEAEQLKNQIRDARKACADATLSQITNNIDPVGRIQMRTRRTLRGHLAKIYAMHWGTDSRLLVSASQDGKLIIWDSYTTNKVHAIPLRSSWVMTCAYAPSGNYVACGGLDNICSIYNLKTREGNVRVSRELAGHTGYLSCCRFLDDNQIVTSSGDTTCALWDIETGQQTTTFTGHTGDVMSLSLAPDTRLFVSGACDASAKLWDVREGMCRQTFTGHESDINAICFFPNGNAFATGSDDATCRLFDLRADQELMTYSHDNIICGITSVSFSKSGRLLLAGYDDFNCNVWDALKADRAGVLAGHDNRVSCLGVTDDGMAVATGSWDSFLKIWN

C[N+](C)(C)CC#CCOC1=NOCC1 [Ixo, iperoxo]
IC50 ([1]; M2R in HDL particles, +GoA): 1.8 nM
IC50 ([1]; M2R in HDL particles, absence of GoA): 47.7 nM
increase of affinity on addition of GoA ([1]; M2R in HDL particles): ~ 27 fold
competition curve data, Fig. 1b ([3H]-NMS binding) ([1]; log[M] -6, without GoA): 5.629 and 5.897 and 4.938
competition curve data, Fig. 1b ([3H]-NMS binding) ([1]; log[M] -7, +GoA): 1.735 and 2.591
competition curve data, Fig. 1b ([3H]-NMS binding) ([1]; log[M] -7, without GoA): 32.2784 and 32.9838 and 32.0245
competition curve data, Fig. 1b ([3H]-NMS binding) ([1]; log[M] -8, +GoA): 6.41 and 4.7831 and 8.225
competition curve data, Fig. 1b ([3H]-NMS binding) ([1]; log[M] -8, without GoA): 80.5549 and 71.1592 and 70.0024
competition curve data, Fig. 1b ([3H]-NMS binding) ([1]; log[M] -9, +GoA): 64.4578 and 59.7146 and 77.1975
competition curve data, Fig. 1b ([3H]-NMS binding) ([1]; log[M] -9, without GoA): 92.3489 and 93.3083 and 87.8063
competition curve data, Fig. 1b ([3H]-NMS binding) ([1]; log[M] -10, +GoA): 85.6735 and 79.355 and 99.5434
competition curve data, Fig. 1b ([3H]-NMS binding) ([1]; log[M] -10, without GoA): 97.3148 and 101.914 and 100.771
competition curve data, Fig. 1b ([3H]-NMS binding) ([1]; log[M] -11, +GoA): 89.0468 and 92.1461 and 118.807
competition curve data, Fig. 1b ([3H]-NMS binding) ([1]; log[M] -11, without GoA): 86.0992 and 80.6395 and 89.0477
competition curve data, Fig. 1b ([3H]-NMS binding) ([1]; log[M] -12, +GoA): 107.797 and 98.7044 and 86.8037
competition curve data, Fig. 1b ([3H]-NMS binding) ([1]; log[M] -12, without GoA): 98.7115 and 87.2702 and 99.5439
Residual GTP (%) ([2]; +DMSO): 7.331% and 3.598% and 1.619%
Residual GTP (%) ([2]; +LY2119620 (100 μM)): 34.958% and 41.3656% and 22.0231%
GTP-turnover, Fig. 1c (GTPase-Glo luminescence) ([2]; time 15 min, 100 μM ACh or 10 μM Ixo, M2R-GoA): 432481 and 362971 and 431239 and 324973
∆pEC50 [3]: -0.434 and -0.475 and -0.315
NanoBiT-GoA dissociation signal, Mean (Veh = 1.000) ([3]; IXO Log [M] -6, n = 3): 0.336
NanoBiT-GoA dissociation signal, Mean (Veh = 1.000) ([3]; IXO Log [M] -7, n = 3): 0.355
NanoBiT-GoA dissociation signal, Mean (Veh = 1.000) ([3]; IXO Log [M] -8, n = 3): 0.423
NanoBiT-GoA dissociation signal, Mean (Veh = 1.000) ([3]; IXO Log [M] -9, n = 3): 0.635
NanoBiT-GoA dissociation signal, Mean (Veh = 1.000) ([3]; IXO Log [M] -10, n = 3): 0.887
NanoBiT-GoA dissociation signal, Mean (Veh = 1.000) ([3]; IXO Log [M] -11, n = 3): 0.985
NanoBiT-GoA dissociation signal, Mean (Veh = 1.000) ([3]; IXO Log [M] -12, n = 3): 1.001
NanoBiT-GoA dissociation signal, Mean (Veh = 1.000) ([4]; IXO Log [M] -6, n = 3): 0.990
NanoBiT-GoA dissociation signal, Mean (Veh = 1.000) ([4]; IXO Log [M] -7, n = 3): 0.997
NanoBiT-GoA dissociation signal, Mean (Veh = 1.000) ([4]; IXO Log [M] -8, n = 3): 0.995
NanoBiT-GoA dissociation signal, Mean (Veh = 1.000) ([4]; IXO Log [M] -9, n = 3): 1.002
NanoBiT-GoA dissociation signal, Mean (Veh = 1.000) ([4]; IXO Log [M] -10, n = 3): 1.001
NanoBiT-GoA dissociation signal, Mean (Veh = 1.000) ([4]; IXO Log [M] -11, n = 3): 1.005
NanoBiT-GoA dissociation signal, Mean (Veh = 1.000) ([4]; IXO Log [M] -12, n = 3): 1.002
∆pEC50 ([5]; WT (1:1), reference): 0.000
NanoBiT-GoA dissociation signal, Mean (Veh = 1.000) ([5]; WT (1:1), IXO Log [M] -6): 0.334
NanoBiT-GoA dissociation signal, Mean (Veh = 1.000) ([5]; WT (1:1), IXO Log [M] -7): 0.343
NanoBiT-GoA dissociation signal, Mean (Veh = 1.000) ([5]; WT (1:1), IXO Log [M] -8): 0.377
NanoBiT-GoA dissociation signal, Mean (Veh = 1.000) ([5]; WT (1:1), IXO Log [M] -9): 0.510
NanoBiT-GoA dissociation signal, Mean (Veh = 1.000) ([5]; WT (1:1), IXO Log [M] -10): 0.788
NanoBiT-GoA dissociation signal, Mean (Veh = 1.000) ([5]; WT (1:1), IXO Log [M] -11): 0.961
NanoBiT-GoA dissociation signal, Mean (Veh = 1.000) ([5]; WT (1:1), IXO Log [M] -12): 1.000
∆pEC50 ([5]; WT (1:2)): -0.203 and -0.153 and -0.342 and -0.212
NanoBiT-GoA dissociation signal, Mean (Veh = 1.000) ([5]; WT (1:2), IXO Log [M] -6): 0.338
NanoBiT-GoA dissociation signal, Mean (Veh = 1.000) ([5]; WT (1:2), IXO Log [M] -7): 0.345
NanoBiT-GoA dissociation signal, Mean (Veh = 1.000) ([5]; WT (1:2), IXO Log [M] -8): 0.397
NanoBiT-GoA dissociation signal, Mean (Veh = 1.000) ([5]; WT (1:2), IXO Log [M] -9): 0.567
NanoBiT-GoA dissociation signal, Mean (Veh = 1.000) ([5]; WT (1:2), IXO Log [M] -10): 0.844
NanoBiT-GoA dissociation signal, Mean (Veh = 1.000) ([5]; WT (1:2), IXO Log [M] -11): 0.975
NanoBiT-GoA dissociation signal, Mean (Veh = 1.000) ([5]; WT (1:2), IXO Log [M] -12): 1.005

From paper PMC9870890 (Nature Communications, 2023)
